Data: ChEMBL document CHEMBL1124797, “A model for the antagonist binding site on the adenosine A1 receptor, based on steric, electrostatic, and hydrophobic properties” (J Med Chem, 1990)

Target: T1, Adenosine receptor A1 (Rattus norvegicus, UniProt P25099)
T1 sequence (P25099 whole entry): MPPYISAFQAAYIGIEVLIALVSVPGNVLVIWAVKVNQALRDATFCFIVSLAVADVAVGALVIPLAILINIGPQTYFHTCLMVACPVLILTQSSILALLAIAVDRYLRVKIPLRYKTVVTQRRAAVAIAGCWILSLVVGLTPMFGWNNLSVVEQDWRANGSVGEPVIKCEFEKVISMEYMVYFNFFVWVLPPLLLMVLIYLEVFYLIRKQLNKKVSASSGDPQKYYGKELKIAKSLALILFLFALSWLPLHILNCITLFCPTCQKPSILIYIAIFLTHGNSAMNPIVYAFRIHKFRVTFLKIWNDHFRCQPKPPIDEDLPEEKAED
Test: Inhibition of [3H]CHA binding to Adenosine A1 receptor in rat brain membranes
Assay type: cell membranes

Ki [nM]	Compound
4.8	CCCn1c(=O)c2[nH]c(-c3ccc(Cl)cc3N)nc2n(CCC)c1=O
310	Cc1nn(C)c2c(=O)[nH]c(-c3ccc(Cl)cc3N)nc12
